Biological target: T1, VrCIII2 (complex III dimer, cytochrome bc1 complex); cytochrome b (COB) sites (Vigna radiata, UniProt E9KZM1)
T1 construct: native obligate dimer, 10 subunits per monomer, from mitochondria of etiolated hypocotyls; digitonin-extracted, amphipol A8-35; RNA-edited COB; partially purified (sucrose gradient); with Cytochrome c1, heme protein, mitochondrial; Cytochrome b-c1 complex subunit Rieske, mitochondrial; Mitochondrial-processing peptidase subunit alpha; Mitochondrial-processing peptidase subunit beta; Cytochrome b-c1 complex subunit 6; Cytochrome b-c1 complex subunit 7; Cytochrome b-c1 complex subunit 8; Cytochrome b-c1 complex subunit 9; Cytochrome b-c1 complex subunit 10
Assay: spectroscopic cytochrome c reduction at […] nm, pooled gradient fractions
Type: biochemical
Details: 100 uM reduced decylubiquinone, 100 uM equine cyt c, pH 7.8, room temperature

CCCCCCCCCCc1c(C)c(O)c(OC)c(OC)c1O [reduced decylubiquinone]
spectroscopic cytochrome c reduction at 550 nm, pooled gradient fractions: CIII2 respiratory activity (electron transfer from reduced decylubiquinone to cytochrome c)

Source: PMC7815315, “Atomic structures of respiratory complex III2, complex IV, and supercomplex III2-IV from vascular plants” (eLife, 2021)
